Reference: ChEMBL document CHEMBL4813911 (J Med Chem, 2020)

How the values were obtained:
[1] = molecular target: T1, Amine oxidase [flavin-containing] A (Homo sapiens, UniProt P21397); assay: Inhibition of human MAO-A expressed in baculovirus infected BTI insect cells using tyramine as substrate incubated for 30 mins by peroxidase-coupled assay
T1 sequence (P21397 whole entry): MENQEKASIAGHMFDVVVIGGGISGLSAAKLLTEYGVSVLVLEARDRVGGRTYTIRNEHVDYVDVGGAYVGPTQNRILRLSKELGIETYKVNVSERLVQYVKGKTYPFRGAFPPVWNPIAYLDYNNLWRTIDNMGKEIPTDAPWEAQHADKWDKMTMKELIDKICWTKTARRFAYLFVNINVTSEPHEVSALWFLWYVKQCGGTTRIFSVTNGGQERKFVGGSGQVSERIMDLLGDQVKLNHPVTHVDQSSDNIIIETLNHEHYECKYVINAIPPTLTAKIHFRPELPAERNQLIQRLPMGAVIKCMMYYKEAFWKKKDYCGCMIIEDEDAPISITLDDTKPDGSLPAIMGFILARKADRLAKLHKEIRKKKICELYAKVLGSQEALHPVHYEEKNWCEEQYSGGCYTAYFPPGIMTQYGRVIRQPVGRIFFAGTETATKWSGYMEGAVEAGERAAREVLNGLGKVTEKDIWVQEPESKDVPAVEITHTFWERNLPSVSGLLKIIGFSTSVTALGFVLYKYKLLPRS

[2] = molecular target: T2, Lysine-specific histone demethylase 2 (Homo sapiens, UniProt Q8NB78); assay: Inhibition of LSD2 (unknown origin) using Lys4-dimethylated H3 (1-20) peptide as substrate incubated for 30 mins by peroxidase-coupled assay
T2 sequence (Q8NB78 whole entry): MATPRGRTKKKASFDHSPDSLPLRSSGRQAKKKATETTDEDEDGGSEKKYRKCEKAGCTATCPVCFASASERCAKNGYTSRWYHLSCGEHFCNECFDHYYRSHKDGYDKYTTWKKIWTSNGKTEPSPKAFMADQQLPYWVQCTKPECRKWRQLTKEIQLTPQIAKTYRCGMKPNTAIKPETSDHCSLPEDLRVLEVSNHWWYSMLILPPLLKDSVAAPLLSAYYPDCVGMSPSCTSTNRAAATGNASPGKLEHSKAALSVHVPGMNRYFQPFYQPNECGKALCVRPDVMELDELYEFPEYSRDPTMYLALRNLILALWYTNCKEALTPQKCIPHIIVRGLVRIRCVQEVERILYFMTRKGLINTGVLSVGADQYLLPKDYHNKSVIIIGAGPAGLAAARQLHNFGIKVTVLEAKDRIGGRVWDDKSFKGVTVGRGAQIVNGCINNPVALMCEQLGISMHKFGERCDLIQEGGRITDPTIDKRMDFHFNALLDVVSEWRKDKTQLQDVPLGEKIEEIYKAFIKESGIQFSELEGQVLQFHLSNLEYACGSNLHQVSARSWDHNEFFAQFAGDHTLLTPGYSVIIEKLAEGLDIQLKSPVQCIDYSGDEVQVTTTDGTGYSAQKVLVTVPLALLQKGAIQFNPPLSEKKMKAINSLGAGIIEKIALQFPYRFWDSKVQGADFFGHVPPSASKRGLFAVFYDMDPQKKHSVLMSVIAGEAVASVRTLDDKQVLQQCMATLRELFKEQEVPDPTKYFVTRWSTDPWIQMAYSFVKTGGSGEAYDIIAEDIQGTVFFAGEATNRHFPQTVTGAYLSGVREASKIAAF

[3] = molecular target: T3, Amine oxidase [flavin-containing] B (Homo sapiens, UniProt P27338); assay: biochemical
T3 sequence (P27338 whole entry): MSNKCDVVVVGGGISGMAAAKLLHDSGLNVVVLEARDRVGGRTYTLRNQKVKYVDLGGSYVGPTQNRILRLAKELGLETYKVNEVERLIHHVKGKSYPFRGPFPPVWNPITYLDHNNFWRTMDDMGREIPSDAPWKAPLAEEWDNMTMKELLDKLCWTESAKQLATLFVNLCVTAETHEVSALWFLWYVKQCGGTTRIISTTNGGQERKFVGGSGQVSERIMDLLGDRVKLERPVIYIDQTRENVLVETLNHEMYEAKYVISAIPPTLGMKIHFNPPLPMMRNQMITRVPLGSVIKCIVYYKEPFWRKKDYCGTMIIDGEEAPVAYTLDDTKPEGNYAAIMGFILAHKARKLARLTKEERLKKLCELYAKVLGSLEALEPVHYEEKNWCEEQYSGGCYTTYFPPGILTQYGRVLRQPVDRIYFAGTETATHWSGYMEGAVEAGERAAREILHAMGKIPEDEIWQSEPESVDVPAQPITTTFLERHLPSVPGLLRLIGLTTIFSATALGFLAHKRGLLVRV

[4] = system: HCT-116; assay: Antiproliferative activity against human HCT116 cells after 48 hrs by MTT assay; assay type: functional
[5] = system: SH-SY5Y; assay: Antiproliferative activity against human SH-SY5Y cells after 48 hrs by MTT assay; assay type: functional
[6] = system: KYSE-150 cell line; assay: Antiproliferative activity against human KYSE150 cells after 48 hrs by MTT assay; assay type: functional
[7] = system: HeLa; assay: Antiproliferative activity against human HeLa cells after 48 hrs by MTT assay; assay type: functional
[8] = system: PC-3; assay: Antiproliferative activity against human PC-3 cells after 48 hrs by MTT assay; assay type: functional
[9] = molecular target: T3, Amine oxidase [flavin-containing] B; assay: biochemical; remark: listed apart in the source
[10] = molecular target: T1, Amine oxidase [flavin-containing] A; assay: Inhibition of human MAO-A expressed in expressed in baculovirus infected BTI insect cells using tyramine as substrate by peroxidase-coupled method
[11] = molecular target: T1, Amine oxidase [flavin-containing] A; assay: biochemical
[12] = molecular target: T1, Amine oxidase [flavin-containing] A
[13] = system: MV4-11; assay: Antiproliferative activity against human MV4-11 cells incubated for 6 days by MTS assay; assay type: functional, cell-based; details: MV4-11, 144 h
[14] = molecular target: T1, Amine oxidase [flavin-containing] A; assay: Inhibition of MAO-A (unknown origin) preincubated for 20 mins using 5-hydroxytryptamine as substrate followed by substrate addition and measured after 60 mins
[15] = molecular target: T3, Amine oxidase [flavin-containing] B; assay: Inhibition of MAO-B (unknown origin) using benzylamine as substrate preincubated for 20 mins followed by substrate addition and measured after 60 mins
[16] = molecular target: LSD1/CoREST complex (Homo sapiens, UniProt O60341); assay: Inhibition of LSD1/FLAG-tagged CoREST (unknown origin) expressed in HEK293F cells using diMeK4H3(1 to 21) as substrate preincubated for 5 mins followed by substrate addition measured for 5 mins by horseradish peroxidase-coupled assay
[17] = Inhibition of HDAC1/FLAG-tagged CoREST (unknown origin) expressed in HEK293F cells using p53 (379 to 382 residues) (RHKK(Ac) as substrate incubated for 30 mins by fluorescence method; design: species or system Homo sapiens
[18] = Antiproliferative activity against human MET-1 cells after 72 hrs by [3H] thymidine incorporation assay; assay type: functional, cell-based
[19] = Antiproliferative activity against human SCCIC1 cells after 72 hrs by [3H] thymidine incorporation assay; assay type: functional, cell-based
[20] = molecular target: Lysine-specific histone demethylase 1A (Homo sapiens, UniProt O60341); assay: Inhibition of human LSD1 expressed in Escherichia coli BL21 (DE3) cells using (ARTK(diMe)QTARKSTGGKAPRKQLA peptide as substrate incubated for 30 mins by HRP reagent based fluorescence method

SMILES: NC1CC1c1cc(F)cc(F)c1OCc1ccccc1 (stereo unspecified)
- Ki [1]: 71 µM
- Ki [2]: > 250 µM
- Ki [3]: 33 µM

SMILES: NC1CC1c1cccc(OCC[C@H](NC(=O)c2ccccc2)C(=O)NCc2ccccc2)c1 (stereo partly specified)
- GI50 [4]: 6 µM
- GI50 [5]: 6 µM
- GI50 [6]: 6 µM
- GI50 [7]: 6 µM
- GI50 [8]: 6 µM

SMILES: NC1CC1c1c(F)c(F)c(F)c(F)c1F (stereo unspecified)
- Ki [9]: 8.3 µM
- Ki [10]: 270 µM

SMILES: NC1CC1c1cccc(F)c1OCc1ccccc1 (stereo unspecified)
- Ki [9]: 42 µM
- Ki [10]: 64 µM

SMILES: O=C(N[C@@H](CCCCNC1CC1c1ccccc1)C(=O)NCc1ccccc1)c1ccccc1 (stereo partly specified)
- GI50 [5]: 17 µM
- GI50 [7]: 35 µM

SMILES: O=C(N[C@@H](CCCCNC1CC1c1ccccc1)C(=O)NCc1cccc(C(F)(F)F)c1)c1ccc(-c2ccccc2)cc1 (stereo partly specified)
- GI50 [5]: 2.4 µM
- GI50 [7]: 4.1 µM

SMILES: O=C(N[C@@H](CCCCNC1CC1c1ccccc1)C(=O)NCc1ccccc1)c1ccc(-c2ccccc2)cc1 (stereo partly specified)
- GI50 [5]: > 3.3 µM
- IC50 [11]: 87 µM
- GI50 [7]: 10 µM

SMILES: CN1CCN(C(=O)CN[C@@H]2C[C@H]2c2ccc(OCc3ccccc3)cc2)CC1
- IC50 [12]: 0.51 µM

SMILES: CCN(CC)S(=O)(=O)c1ccc([C@H]2C[C@@H]2NCc2ccccc2)cc1
- IC50 [13]: 15.4 µM
- IC50 [14]: 0.525 µM
- IC50 [15]: 0.702 µM

SMILES: Nc1ccccc1NC(=O)c1ccc(CCCC(=O)Nc2ccc(C3CC3N)cc2)cc1 (stereo unspecified)
- IC50 [16]: 1.8 µM
- IC50 [17]: 0.23 µM
- IC50 [18]: 0.006 µM
- IC50 [19]: 0.041 µM

SMILES: CCN(CC)S(=O)(=O)c1ccc([C@H]2C[C@@H]2N)cc1
- IC50 [13]: > 30 µM
- IC50 [14]: 0.806 µM
- IC50 [20]: 0.123 µM
- IC50 [15]: 0.898 µM
